“And” between values parts separate entries of the source, which are not always exact repeats. Identical values can stand only once. “Also recorded” adds a separate entry of the source.

For test [1], the system named is BorH/Trp. In words: Isothermal titration calorimetry, FAD into BorH preincubated with Trp. The class given is binding, uncultured soil actinomycetes. On the procedure:
(§1) ITC experiments were performed using a VP-ITC isothermal titration calorimeter (MicroCal) in 20 mM HEPES pH 7.5, 350 mM NaCl, 1 mM ethylenediamine tetraacetic acid (EDTA) and 15% (v/v) glycerol. Solutions of AbeH, BorH, FAD (Chem-Implex), and Trp (Acros Organics) were prepared in the same buffer and degassed under vacuum at 30 °C for 20 min before loading in the syringe or cell. To analyze formation of binary complexes, AbeH or BorH was placed inside the cell, and ligand (FAD or Trp) was injected. For ternary complex titration, one ligand was preincubated with the macromolecule for 30 min at 30 °C to form binary complexes of AbeH/FAD, AbeH/Trp, BorH/FAD, and BorH/Trp before titrating with the second ligand. […] Formation of FADH2 by sodium dithionite was verified using absorbance and fluorescence spectrophotometry.
(§2) ITC experiments were performed with reference power set to 10 μcal/s and Milli-Q water in the reference cell. […] Heats of dilution for all titrants were measured by titrating ligand into buffer for binary complex titrations, and by titrating ligand into a solution containing the other ligand but no protein for ternary complex titration. […]
(§3) Titrations were analyzed by manually integrating each injection, subtracting the heat of dilution, and carrying out nonlinear least-squares fit of the calorimetric binding data to a one-site model using Origin 7.0 (Origin Lab). […]
In general terms: Isothermal titration calorimetry measures the heat released or taken up as one component is titrated into another.

In test [2] the target is T1, AbeH (uncultured bacterium, UniProt F6LWA5). As to the kind of experiment: Quenching of AbeH intrinsic Trp fluorescence upon FAD titration. The arrangement: species or system uncultured soil actinomycetes. Conditions: FAD binding to AbeH, 100 nM AbeH. On the procedure:
Intrinsic tryptophan fluorescence spectroscopy was used to measure FAD binding to AbeH and BorH in 20 mM HEPES pH 7.7- and 50 mM sodium citrate. FAD was prepared in the same buffer and its concentration was determined spectrophotometrically as described earlier. Fluorescence experiments were performed as described earlier. FAD binding to apo-AbeH or apo-BorH was performed in duplicate with 100 nM fixed AbeH or BorH with variable FAD concentrations up to 30 and 70 μM, respectively. AbeH/FAD binding was monitored using excitation at 295 nm and emission at 328 nm. BorH/FAD binding was monitored using excitation at 290 nm and emission at 326 nm. Inner filter effect corrected fluorescence intensities were plotted against quenched intrinsic tryptophan fluorescence of AbeH and BorH. Data were fitted by nonlinear regression to eq 1 using GraphPad Prism 8.0.
Figure S9: FAD binding determined by quenching of BorH and AbeH intrinsic Trp fluorescence.
A. Variable concentrations of FAD (0-70 µM) were incubated with 100 nM BorH and Trp fluorescence was measured with excitation at 290 nm and emission at 326 nm. […]
B. Variable concentrations of FAD (0-30 µM) were incubated with 100 nM AbeH and Trp fluorescence was measured […] with excitation at 295 nm and emission at 328 nm. […]

The target of test [3] is T1, AbeH. In words: Time-course of in vitro Trp chlorination and bromination by AbeH. The class given is biochemical, uncultured soil actinomycetes. On the procedure: Time-course experiments were done using 1.7 μM AbeH, 3.3 μM holo-AbeF, 500 μM Trp, 2.5 mM NADH in 10 mM Na/KPO4 pH 8.2 with either 50 mM NaCl or 100 mM NaBr. Reactions were incubated for 5 min at 37 °C and NADH was added to start the reactions. Aliquots of 100 μL were quenched and analyzed by RP-HPLC at various time points. Unreacted substrate and product concentrations were calculated using peak areas and standard curves of Trp, 5-Cl-Trp, and 5-Br-Trp.
Figure S4: Time-course of in vitro Trp chlorination and bromination by AbeH.
Reaction conditions: 1.7 µM AbeH, 3.3 µM holo-AbeF, 0.5 mM Trp, 2.5 mM NADH, 10 mM Na/KPO4 pH 8.2, and either 50 mM NaCl (A) or 100 mM NaBr (B). Concentration of product formed was calculated from RP-HPLC chromatogram integrated A280 peak areas compared to standard curves of integrated peak areas of known concentrations of 5-Cl-Trp and 5-Br-Trp standards. Experiments were carried out in duplicate. (A) Time course of Trp chlorination by AbeH has chlorination specific activity of 87 µmol min-1 mg-1. (B) Time course of Trp bromination by AbeH has bromination specific activity of 34 µmol min-1 mg-1.
(1 picture or pasted object on this page, not shown here)

In test [4] the test system is BorH/FAD. In words: Isothermal titration calorimetry, Trp into BorH preincubated with FAD. The class given is binding, uncultured soil actinomycetes. As for the experimental part: as §1, §2, §3

T1 sequence (F6LWA5 entry or part of it): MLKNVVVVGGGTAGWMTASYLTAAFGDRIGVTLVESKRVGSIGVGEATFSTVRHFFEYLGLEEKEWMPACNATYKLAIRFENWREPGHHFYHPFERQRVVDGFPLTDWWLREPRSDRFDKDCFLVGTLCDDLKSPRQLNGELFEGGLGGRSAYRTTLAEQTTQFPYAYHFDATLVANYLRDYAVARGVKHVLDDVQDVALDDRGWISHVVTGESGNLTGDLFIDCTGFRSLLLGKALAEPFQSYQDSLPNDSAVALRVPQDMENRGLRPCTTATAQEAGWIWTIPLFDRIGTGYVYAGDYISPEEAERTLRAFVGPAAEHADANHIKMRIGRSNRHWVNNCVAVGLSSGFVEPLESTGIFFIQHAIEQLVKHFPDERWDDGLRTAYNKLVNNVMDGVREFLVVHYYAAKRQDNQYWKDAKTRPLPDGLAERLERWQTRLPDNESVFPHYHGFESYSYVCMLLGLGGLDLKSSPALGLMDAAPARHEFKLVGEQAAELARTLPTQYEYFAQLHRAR

As to `Cc1cc2nc3c(=O)[nH]c(=O)nc-3n(C[C@H](O)[C@H](O)[C@H](O)COP(=O)(O)OP(=O)(O)OC[C@H]3O[C@@H](n4cnc5c(N)ncnc54)[C@H](O)[C@@H]3O)c2cc1C` [FAD], in test [1] (0.63 mM FAD into 10 μM BorH preincubated with 18 mM Trp (95% saturated)), the “Binding of FAD to preincubated BorH/Trp by ITC, in words” value is listed as “No binding was observed; also recorded: failed to detect any heat of binding; also recorded: no evidence of binding”. Further, the “KD, FAD binding to BorH/Trp, ITC” value in test [1] (BorH preincubated with Trp) is reported as “no binding”. Also, the Kd (commonly the concentration at which binding is half-saturated) in test [2] was 960 nM and 1000 nM.
For `N[C@@H](Cc1c[nH]c2ccccc12)C(=O)O` [Tryptophan, L-tryptophan], the “Specific activity of AbeH for Trp chlorination relative to Trp bromination” value in test [3] was “approximately 2.5 ×”. Besides, the “Specific activity of AbeH for chlorination of Trp” value in test [3] (1.7 μM AbeH, 500 μM Trp, 50 mM NaCl, 37 °C) is on record as 87 μM min^–1 mg^–1. Moreover, the “Specific activity of AbeH for bromination of Trp” value in test [3] (1.7 μM AbeH, 500 μM Trp, 100 mM NaBr, 37 °C) was determined as 34 μM min^–1 mg^–1. In addition, the “AbeH chlorination specific activity” value in test [3] (Figure S4 A, 0.5 mM Trp, 50 mM NaCl) stood at 87 µmol/min/mg. Besides, in test [3] (Figure S4 B, 0.5 mM Trp, 100 mM NaBr), the “AbeH bromination specific activity” value amounted to 34 µmol/min/mg. Moreover, in test [4] (21 mM Trp into 8 μM BorH preincubated with 5 mM FAD, listed as Trp), the “Binding of Trp to preincubated BorH/FAD by ITC, in words” value is reported as “No binding was observed; also recorded: no evidence of Trp binding”. Also, the “KD, Trp binding to BorH/FAD, ITC” value in test [4] (BorH preincubated with FAD) is recorded as “no binding”.
